Key:
human factor XIa = biological target: T1, human factor XIa (Homo sapiens, UniProt P03951); test: Factor XIa Assay; type: biochemical; conditions: human factor XIa 0.04 nM, substrate GPR-AFC, 25° C.
T1 construct: with human (0.04 nM) factor XIa
Experimental: (§1) The effectiveness of a compound of the present invention as an inhibitor of Coagulation factor XIa can be determined using a relevant purified serine protease, and an appropriate synthetic substrate. The rate of hydrolysis of the chromogenic or fluorogenic substrate by the relevant serine protease was measured both in the absence and presence of compounds of the present invention. Assays were conducted at rt or at 37° C. […] A decrease in the rate of fluorescence change in the presence of inhibitor is indicative of enzyme inhibition. Such methods are known to one skilled in the art. The results of this assay are expressed as the half-maximal inhibitory concentrations (IC50), or the inhibitory constant, Ki.
Compounds were pre-incubated for 30 min at 25° C. with human (0.04 nM) factor XIa in 50 mM HEPES buffer with 150 mM sodium chloride, 5 mM calcium chloride, 0.1% PEG 8000, pH 7.4. factor XIa enzymatic activity was determined by addition of the substrate glycine-proline-arginine-7-amido-4-trifluoromethylcoumarin (GPR-AFC) and measurement of the fluorescence at 400/505 nm after a 60 min incubation at 25° C. The % inhibition for each data point was calculated from the data and analyzed using the log (inhibitor) vs. response four parameters equation to determine the half-maximal inhibitory concentrations (IC50). The IC50 were converted to equilibrium inhibitory constants (Ki) using the Cheng-Prusoff equation.

Human plasma kallikrein = biological target: T2, Human plasma kallikrein (Homo sapiens, UniProt P03952); test: Plasma Kallikrein Assay; type: biochemical; conditions: purified Human plasma kallikrein 0.5 nM, substrate Acetyl-K-P-R-AFC; read-out: PKal IC50
T2 construct: yields a heavy chain (371 amino acids) and a light chain (248 amino acids); purchased Enzyme Research Laboratories
Experimental: as §1, with “plasma kallikrein” for “Coagulation factor XIa”
Plasma kallikrein determinations were made in 50 mM HEPES buffer at pH 7.4 containing 150 mM NaCl, 5 mM CaCl2), and 0.1% PEG 8000 (polyethylene glycol; Fisher Scientific). Determinations were made using purified Human plasma kallikrein at a final concentration of 0.5 nM (Enzyme Research Laboratories) and the synthetic substrate, Acetyl-K-P-R-AFC (Sigma #C6608) at a concentration of […].
Times required to achieve equilibration between enzyme and inhibitor were determined in control experiments. […] IC50 was determined by inflection point from a four parameter logistic curve fit. Ki was calculated using the Cheng Prusoff equation, Ki=IC50/(1+([S]/Km)).

T1 sequence (P03951 388-625 limits assumed): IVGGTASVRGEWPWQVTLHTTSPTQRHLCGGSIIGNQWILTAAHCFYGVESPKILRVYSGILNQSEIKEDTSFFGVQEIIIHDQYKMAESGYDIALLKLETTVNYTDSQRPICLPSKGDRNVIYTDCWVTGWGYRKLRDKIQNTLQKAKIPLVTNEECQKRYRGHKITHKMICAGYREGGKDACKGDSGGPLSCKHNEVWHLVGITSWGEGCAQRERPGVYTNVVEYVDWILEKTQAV
T1 sequence (P03951 19-387 partner limits assumed): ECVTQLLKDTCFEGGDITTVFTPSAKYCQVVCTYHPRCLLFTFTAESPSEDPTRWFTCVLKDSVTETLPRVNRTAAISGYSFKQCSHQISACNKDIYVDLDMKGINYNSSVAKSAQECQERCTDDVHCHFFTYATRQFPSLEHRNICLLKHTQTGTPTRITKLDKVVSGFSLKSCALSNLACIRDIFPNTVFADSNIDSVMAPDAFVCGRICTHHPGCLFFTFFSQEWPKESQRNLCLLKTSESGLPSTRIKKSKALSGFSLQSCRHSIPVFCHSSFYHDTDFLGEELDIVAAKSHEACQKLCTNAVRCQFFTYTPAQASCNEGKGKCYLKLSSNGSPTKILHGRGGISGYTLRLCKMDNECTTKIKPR
T2 sequence (P03952 391-638 limits assumed): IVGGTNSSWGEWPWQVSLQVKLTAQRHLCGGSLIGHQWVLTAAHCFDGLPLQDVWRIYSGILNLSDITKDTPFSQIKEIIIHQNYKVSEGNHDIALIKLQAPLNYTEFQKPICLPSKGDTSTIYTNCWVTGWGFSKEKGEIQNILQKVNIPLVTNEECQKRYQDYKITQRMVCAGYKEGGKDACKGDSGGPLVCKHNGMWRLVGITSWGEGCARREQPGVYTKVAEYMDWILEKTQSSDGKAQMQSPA
T2 sequence (P03952 20-390 partner limits assumed): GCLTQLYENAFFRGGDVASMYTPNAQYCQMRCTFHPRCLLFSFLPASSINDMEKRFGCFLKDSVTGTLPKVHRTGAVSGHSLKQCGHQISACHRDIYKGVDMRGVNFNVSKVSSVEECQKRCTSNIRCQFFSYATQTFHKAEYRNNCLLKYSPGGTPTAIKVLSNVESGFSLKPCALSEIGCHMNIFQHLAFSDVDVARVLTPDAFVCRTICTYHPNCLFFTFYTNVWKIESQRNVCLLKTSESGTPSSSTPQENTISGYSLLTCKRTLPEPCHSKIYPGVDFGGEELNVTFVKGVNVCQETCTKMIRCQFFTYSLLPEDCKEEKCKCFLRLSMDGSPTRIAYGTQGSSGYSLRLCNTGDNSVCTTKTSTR

| SMILES | IC50 (human factor XIa) | IC50 (Human plasma kallikrein) |
| --- | --- | --- |
| O=C1Nc2ccc(Cl)c(F)c2[C@@]2(CCCN(C(=O)c3cnn([C@@H](CC4CC4)c4ccccc4)c3)C2)O1 (single isomer, unassigned) [Example 1] | 1570 nM | 6.9 nM |
| O=C1Nc2ccc(Cl)c(F)c2[C@@]2(CCCN(C(=O)c3cnn([C@H](CC4CC4)c4ccccc4)c3)C2)O1 (single isomer, unassigned) [Example 2] | 206 nM | 3.2 nM |
| CCC(c1ccc(F)cc1)n1cc(C(=O)N2CCC[C@@]3(C2)OC(=O)Nc2ccc(Cl)c(F)c23)cn1 (single isomer, unassigned) [Example 25] | 210 nM | 10.4 nM |
| CCC(c1ccc(F)cc1)n1cc(C(=O)N2CCC[C@@]3(C2)OC(=O)Nc2ccc(Cl)c(F)c23)cn1 (single isomer, unassigned) [Example 26] | 7640 nM | 6.9 nM |
| O=C1Nc2ccc(Cl)c(F)c2[C@@]2(CCCN(C(=O)c3cnn(C(CC4CC4)c4ccccc4)c3)C2)O1 (single isomer, unassigned) [Example 29] | 1570 nM | 6.9 nM |
| CCC(c1cccc(S(C)(=O)=O)c1)n1cc(C(=O)N2CCC[C@@]3(C2)OC(=O)Nc2ccc(Cl)c(F)c23)cn1 (single isomer, unassigned) [Example 30] | 4350 nM | 5.7 nM |
| CCC(c1cccc(S(C)(=O)=O)c1)n1cc(C(=O)N2CCC[C@@]3(C2)OC(=O)Nc2ccc(Cl)c(F)c23)cn1 (single isomer, unassigned) [Example 31] | 2460 nM | 9 nM |
| CCC(c1ccc2c(c1)OCO2)n1cc(C(=O)N2CCC[C@@]3(C2)OC(=O)Nc2ccc(Cl)c(F)c23)cn1 (single isomer, unassigned) [Example 32] | 1790 nM | 4.6 nM |
| CCC(c1ccc2c(c1)OCO2)n1cc(C(=O)N2CCC[C@@]3(C2)OC(=O)Nc2ccc(Cl)c(F)c23)cn1 (single isomer, unassigned) [Example 33] | 4760 nM | 4.2 nM |
| CCC(c1ccc2cnccc2c1)n1cc(C(=O)N2CCC[C@@]3(C2)OC(=O)Nc2ccc(Cl)c(F)c23)cn1 (single isomer, unassigned) [Example 35] | 1020 nM | 2.6 nM |
| CCC(c1ccc2cnccc2c1)n1cc(C(=O)N2CCC[C@@]3(C2)OC(=O)Nc2ccc(Cl)c(F)c23)cn1 (single isomer, unassigned) [Example 36] | 2490 nM | 2.8 nM |
| CCC(c1ccnc(C(F)(F)F)c1)n1cc(C(=O)N2CCC[C@@]3(C2)OC(=O)Nc2ccc(Cl)c(F)c23)cn1 (single isomer, unassigned) [Example 37] | 1450 nM | 2.6 nM |
| CCC(c1ccnc(C(F)(F)F)c1)n1cc(C(=O)N2CCC[C@@]3(C2)OC(=O)Nc2ccc(Cl)c(F)c23)cn1 (single isomer, unassigned) [Example 38] | 2060 nM | 1.8 nM |
| CCC(c1ccc2[nH]ncc2c1)n1cc(C(=O)N2CCC[C@@]3(C2)OC(=O)Nc2ccc(Cl)c(F)c23)cn1 (single isomer, unassigned) [Example 39] | 1350 nM | 4 nM |
| O=C1Nc2ccc(Cl)c(F)c2[C@@]2(CCCN(C(=O)c3cnn(Cc4ccccc4)c3)C2)O1 [Example 3, (R)-1′-(1-Benzyl-1H-pyrazole-4-carbonyl)-6-chloro-5-fluorospiro[benzo[d][1,3]oxazine-4,3′-piperidin]-2(1H)-one] | 1380 nM |  |
| O=C1Nc2ccc(Cl)c(F)c2[C@@]2(CCCN(C(=O)c3nnc(Cc4ccc5c(c4)OCO5)[nH]3)C2)O1 [Example 119, (R)-1′-(5-(Benzo[d][1,3]dioxol-5-ylmethyl)-4H-1,2,4-triazole-3-carbonyl)-6-chloro-5-fluorospiro[benzo[d][1,3]oxazine-4,3′-piperidin]-2(1H)-one] |  | 47.1 nM |
| O=C1Nc2ccc(Cl)c(F)c2[C@@]2(CCCN(C(=O)c3nnc(Cc4cc(F)cc(F)c4)[nH]3)C2)O1 [Example 120, (R)-6-Chloro-1′-(5-(3,5-difluorobenzyl)-4H-1,2,4-triazole-3-carbonyl)-5-fluorospiro[benzo[d][1,3]oxazine-4,3′-piperidin]-2(1H)-one] |  | 21.1 nM |
| O=C1Nc2ccc(Cl)c(F)c2[C@@]2(CCCN(C(=O)c3nnc(Cc4cc(F)cc(Cl)c4)[nH]3)C2)O1 [Example 121, (R)-6-Chloro-1′-(5-(3-chloro-5-fluorobenzyl)-4H-1,2,4-triazole-3-carbonyl)-5-fluorospiro[benzo[d][1,3]oxazine-4,3′-piperidin]-2(1H)-one] |  | 35.4 nM |
| O=C1Nc2ccc(Cl)c(F)c2[C@@]2(CCCN(C(=O)c3nnc(Cc4cc(Cl)c5nc[nH]c5c4)[nH]3)C2)O1 [Example 122, (R)-6-Chloro-1′-(5-((4-chloro-1H-benzo[d]imidazol-6-yl)methyl)-4H-1,2,4-triazole-3-carbonyl)-5-fluorospiro[benzo[d][1,3]oxazine-4,3′-piperidin]-2(1H)-one] |  | 17.5 nM |
| Cc1cc(Cc2nnc(C(=O)N3CCC[C@@]4(C3)OC(=O)Nc3ccc(Cl)c(F)c34)[nH]2)cc2[nH]nnc12 [Example 123, (R)-6-Chloro-5-fluoro-1′-(5-((4-methyl-1H-benzo[d][1,2,3]triazol-6-yl)methyl)-4H-1,2,4-triazole-3-carbonyl)spiro[benzo[d][1,3]oxazine-4,3′-piperidin]-2(1H)-one] |  | 19.1 nM |
| O=C1Nc2ccc(Cl)c(F)c2[C@@]2(CCCN(C(=O)c3nnc(Cc4ccc(CO)c(Cl)c4)[nH]3)C2)O1 [Example 125, (R)-6-Chloro-1′-(5-(3-chloro-4-(hydroxymethyl)benzyl)-4H-1,2,4-triazole-3-carbonyl)-5-fluorospiro[benzo[d][1,3]oxazine-4,3′-piperidin]-2(1H)-one] |  | 20.3 nM |
| Cc1ccc(Cc2nnc(C(=O)N3CCC[C@@]4(C3)OC(=O)Nc3ccc(Cl)c(F)c34)[nH]2)cc1C [Example 126, (R)-6-Chloro-1′-(5-(3,4-dimethylbenzyl)-4H-1,2,4-triazole-3-carbonyl)-5-fluorospiro[benzo[d][1,3]oxazine-4,3′-piperidin]-2(1H)-one] |  | 33.1 nM |
| O=C1Nc2ccc(Cl)c(F)c2[C@@]2(CCCN(C(=O)c3nc(C(O)c4ccc(F)cc4)n[nH]3)C2)O1 (stereo partly drawn) [Example 127, (4R)-6-Chloro-5-fluoro-1′-(3-((4-fluorophenyl)(hydroxy)methyl)-1H-1,2,4-triazole-5-carbonyl)spiro[benzo[d][1,3]oxazine-4,3′-piperidin]-2(1H)-one] |  | 39.9 nM |
| O=C1Nc2ccc(Cl)c(F)c2[C@]2(CCN(C(=O)c3cnn(Cc4ccc(Cn5ccccc5=O)cc4)c3)C2)O1 [Example 132] |  | 6.1 nM |
| O=C1Nc2ccc(Cl)c(F)c2[C@]2(CCN(C(=O)c3cnn(Cc4ccc(Cn5ccccc5=O)cn4)c3)C2)O1 [Example 133, (S)-6-Chloro-5-fluoro-1′-(1-((5-((2-oxopyridin-1(2H)-yl)methyl)pyridin-2-yl)methyl)-1H-pyrazole-4-carbonyl)spiro[benzo[d][1,3]oxazine-4,3′-pyrrolidin]-2(1H)-one] |  | 15.1 nM |
| Cc1cnn(Cc2ccc(Cn3cc(C(=O)N4CC[C@]5(C4)OC(=O)Nc4ccc(Cl)c(F)c45)cn3)cc2)c1 [Example 134, (S)-6-Chloro-5-fluoro-1′-(1-(4-((4-methyl-1H-pyrazol-1-yl)methyl)benzyl)-1H-pyrazole-4-carbonyl)spiro[benzo[d][1,3]oxazine-4,3′-pyrrolidin]-2(1H)-one] |  | 20.8 nM |
| O=C1Nc2ccc(Cl)c(F)c2[C@]2(CCN(C(=O)c3cn(Cc4ccc(Cn5ccccc5=O)cc4)nc3C(F)(F)F)C2)O1 [Example 135, (S)-6-Chloro-5-fluoro-1′-(1-(4-((2-oxopyridin-1(2H)-yl)methyl)benzyl)-3-(trifluoromethyl)-1H-pyrazole-4-carbonyl)spiro[benzo[d][1,3]oxazine-4,3′-pyrrolidin]-2(1H)-one] |  | 7.5 nM |
| O=C1Nc2ccc(Cl)c(F)c2[C@]2(CCN(C(=O)C3(F)CCN(Cc4ccc(Cn5ccccc5=O)cc4)CC3)C2)O1 [Example 138, (4S)-6-Chloro-5-fluoro-1′-(4-fluoro-1-(4-((2-oxopyridin-1(2H)-yl)methyl)benzyl)piperidine-4-carbonyl)spiro[benzo[d][1,3]oxazine-4,3′-pyrrolidin]-2(1H)-one] |  | 5.6 nM |

From patent US20250099478A1, “PLASMA KALLIKREIN INHIBITORS” (Merck Sharp & Dohme LLC, priority 2022, published 2025)
